Values of other authors, collected in publication PMC4875935 (Clinical Pharmacokinetics, 2015).
“And” between values parts separate entries of the source, which are not always exact repeats. Equal values may be shown once.

How the values were obtained:
Candida albicans = settings: neutropenic mouse model of disseminated Candida albicans
[1] = not given; remark: listed apart in the source

## CC[C@H](C)C[C@H](C)CCCCCCCCC(=O)N[C@H]1C[C@@H](O)[C@@H](NCCN)NC(=O)[C@@H]2[C@@H](O)CCN2C(=O)[C@H]([C@H](O)CCN)NC(=O)[C@H]([C@H](O)[C@@H](O)c2ccc(O)cc2)NC(=O)[C@@H]2C[C@@H](O)CN2C(=O)[C@H]([C@@H](C)O)NC1=O [caspofungin]
Candida albicans
  AUC/MIC ratio associated with a 1-log kill/24 h: 865
C. albicans
  epidemiological cut-off value: 0.12 µg/mL
  mode MIC: 0.03 µg/mL
Earlier studies amongst other patient groups
  CL: 0.40 L/h and 0.46 L/h
Typically observed for caspofungin
  AUC24 typically observed: 100000 ng·h/mL
[1]
  protein bound: 92–97%
Invasive candidiasis; 150 mg daily, patients with invasive candidiasis
  tolerability: well-tolerated
Invasive candidiasis; reported response rates in the literature
  clinical and mycological cure at the end of therapy: 72–73%
